# Source: patent publication US10681909B2, “Herbicidal triazoles” (FMC Corporation, priority 2014, dated 2020)
# Legend:
# barnyardgrass [1] = test: Test A postemergence; assay type: in vivo, Echinochloa crus-galli; conditions: Echinochloa crus-galli, post-emergence, 240 h, 0 to 100 scale (0 no effect, 100 complete control), approx. 10 d, read-out: Plant response rating, Barnyardgrass
# Method in brief: (§1)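 Plant seeds in loam soil blended with sand, then apply test chemical preemergence as a directed soil spray; in parallel, spray potted seedlings (one- to two-leaf, 2 to 10 cm) postemergence. Both treatments use a non-phytotoxic solvent mixture with surfactant.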
# pigweed [2] = test: Test C postemergence; assay type: in vivo, Amaranthus retroflexus
# Method in brief: (§2)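 Pre: seeded into loam/sand, sprayed same time. Post: plants in peat moss–vermiculite mix with starter nutrients and dolomitic limestone, treated at 1- to 4-leaf stage (2 to 18 cm). Formulation: non-phytotoxic solvent blend plus surfactant.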
# foxtail, giant [3] = test: Test A postemergence; assay type: in vivo, Setaria faberii; conditions: Setaria faberi, post-emergence, 240 h, 0 to 100 scale (0 no effect, 100 complete control), approx. 10 d, read-out: Plant response rating, Foxtail, Giant
# Method in brief: as §1
# sedge, umbrella = test: Test B flooded paddy test; assay type: in vivo, Cyperus difformis; conditions: Cyperus difformis, 360 h, 125 g ai/ha, applied to paddy water at 2-leaf stage, visual rating after 13 to 15 d, scale 0 (no effect) to 100 (complete control), read-out: Plant response rating, Sedge, Umbrella, Flood
# Method in brief: (§3)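 Pots were flooded to 3 cm above the soil at treatment, and compounds were applied directly into the paddy water. That depth was held throughout. After 13 to 15 d in a greenhouse, plants were rated visually against untreated controls.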
# galium = test: Test C postemergence; assay type: in vivo, Galium aparine
# Method in brief: as §2
# corn [4] = test: Test A postemergence; assay type: in vivo, Zea mays; conditions: Zea mays, post-emergence, 240 h, 0 to 100 scale (0 no effect, 100 complete control), approx. 10 d
# Method in brief: as §1
# barnyardgrass [5] = test: Test B flooded paddy test; assay type: in vivo, Echinochloa crus-galli; conditions: Echinochloa crus-galli, 360 h, 125 g ai/ha, applied to paddy water at 2-leaf stage, visual rating after 13 to 15 d, scale 0 (no effect) to 100 (complete control), read-out: Plant response rating, Barnyardgrass, Flood
# Method in brief: as §3
# lambsquarters = test: Test C postemergence; assay type: in vivo, Chenopodium album
# Method in brief: as §2
# ducksalad = test: Test B flooded paddy test; assay type: in vivo, Heteranthera limosa; conditions: Heteranthera limosa, 360 h, 125 g ai/ha, applied to paddy water at 2-leaf stage, visual rating after 13 to 15 d, scale 0 (no effect) to 100 (complete control), read-out: Plant response rating, Ducksalad, Flood
# Method in brief: as §3
# oat, wild = test: Test C postemergence; assay type: in vivo, Avena fatua
# Method in brief: as §2
# nutsedge, yellow = test: Test C postemergence; assay type: in vivo, Cyperus esculentus
# Method in brief: as §2
# wheat (winter wheat) = test: Test C postemergence; assay type: in vivo, Triticum aestivum
# Method in brief: as §2
# oilseed rape = test: Test C postemergence; assay type: in vivo, Brassica napus
# Method in brief: as §2
# ryegrass, Italian = test: Test C postemergence; assay type: in vivo, Lolium multiflorum
# Method in brief: as §2
# johnsongrass = test: Test C postemergence; assay type: in vivo, Sorghum halepense
# Method in brief: as §2
# foxtail, giant [6] = test: Test C postemergence; assay type: in vivo, Setaria faberii
# Method in brief: as §2
# rice = test: Test B flooded paddy test; assay type: in vivo, Oryza sativa; conditions: Oryza sativa, 360 h, 125 g ai/ha, applied to paddy water at 2-leaf stage, visual rating after 13 to 15 d, scale 0 (no effect) to 100 (complete control), read-out: Plant response rating, Rice, Flood
# Method in brief: as §3
# pigweed [7] = test: Test A postemergence; assay type: in vivo, Amaranthus retroflexus; conditions: Amaranthus retroflexus, post-emergence, 240 h, 0 to 100 scale (0 no effect, 100 complete control), approx. 10 d, read-out: Plant response rating, Pigweed
# Method in brief: as §1
# ragweed = test: Test C postemergence; assay type: in vivo, Ambrosia elatior
# Method in brief: as §2
# chickweed = test: Test C postemergence; assay type: in vivo, Stellaria media
# Method in brief: as §2
# corn [8] = test: Test C postemergence; assay type: in vivo, Zea mays
# Method in brief: as §2
smiles,measurement,setting,value
"CCc1nc(-c2ccc(C(F)(F)F)cc2)nn1Cc1ccnc(C(F)(F)F)c1 [Compound 1, 4-[[5-ethyl-3-[4-(trifluoromethyl)phenyl]-1H-1,2,4-triazol-1-yl]methyl]-2-(trifluoromethyl)pyridine]",pest or weed control at 125 g/ha,barnyardgrass [1]; 125 g ai/ha,80%
same,pest or weed control at 500 g/ha,barnyardgrass [1]; 500 g ai/ha,90%
same,Plant response rating (scale of 0 to 100 where 0 is no effect and 100 is complete control),pigweed [2]; 31 g ai/ha,50
same,Plant response rating (scale of 0 to 100 where 0 is no effect and 100 is complete control),pigweed [2]; 62 g ai/ha,98
same,Plant response rating (scale of 0 to 100 where 0 is no effect and 100 is complete control),pigweed [2]; 125 g ai/ha,98
same,Plant response rating (scale of 0 to 100 where 0 is no effect and 100 is complete control),pigweed [2]; 250 g ai/ha,100
same,pest or weed control at 125 g/ha,"foxtail, giant [3]; 125 g ai/ha",90%
same,pest or weed control at 500 g/ha,"foxtail, giant [3]; 500 g ai/ha",100%
same,pest or weed control at 125 g/ha,"sedge, umbrella",75%
same,Plant response rating (scale of 0 to 100 where 0 is no effect and 100 is complete control),galium; 31 g ai/ha,80
same,Plant response rating (scale of 0 to 100 where 0 is no effect and 100 is complete control),galium; 62 g ai/ha,80
same,Plant response rating (scale of 0 to 100 where 0 is no effect and 100 is complete control),galium; 125 g ai/ha,90
same,Plant response rating (scale of 0 to 100 where 0 is no effect and 100 is complete control),galium; 250 g ai/ha,90
same,"Corn plant response rating (crop injury, 0 = no effect, 100 = complete kill) at 125 g/ha",corn [4]; 125 g ai/ha,30%
same,"Corn plant response rating (crop injury, 0 = no effect, 100 = complete kill) at 500 g/ha",corn [4]; 500 g ai/ha,80%
same,pest or weed control at 125 g/ha,barnyardgrass [5],40%
same,Plant response rating (scale of 0 to 100 where 0 is no effect and 100 is complete control),lambsquarters; 31 g ai/ha,70
same,Plant response rating (scale of 0 to 100 where 0 is no effect and 100 is complete control),lambsquarters; 62 g ai/ha,70
same,Plant response rating (scale of 0 to 100 where 0 is no effect and 100 is complete control),lambsquarters; 125 g ai/ha,75
same,Plant response rating (scale of 0 to 100 where 0 is no effect and 100 is complete control),lambsquarters; 250 g ai/ha,80
same,pest or weed control at 125 g/ha,ducksalad,20%
same,Plant response rating (scale of 0 to 100 where 0 is no effect and 100 is complete control),"oat, wild; 31 g ai/ha",5
same,Plant response rating (scale of 0 to 100 where 0 is no effect and 100 is complete control),"oat, wild; 62 g ai/ha",10
same,Plant response rating (scale of 0 to 100 where 0 is no effect and 100 is complete control),"oat, wild; 125 g ai/ha",15
same,Plant response rating (scale of 0 to 100 where 0 is no effect and 100 is complete control),"oat, wild; 250 g ai/ha",25
same,Plant response rating (scale of 0 to 100 where 0 is no effect and 100 is complete control),"nutsedge, yellow; 31 g ai/ha",5
same,Plant response rating (scale of 0 to 100 where 0 is no effect and 100 is complete control),"nutsedge, yellow; 62 g ai/ha",5
same,Plant response rating (scale of 0 to 100 where 0 is no effect and 100 is complete control),"nutsedge, yellow; 125 g ai/ha",5
same,Plant response rating (scale of 0 to 100 where 0 is no effect and 100 is complete control),"nutsedge, yellow; 250 g ai/ha",10
same,Plant response rating (scale of 0 to 100 where 0 is no effect and 100 is complete control),wheat (winter wheat); 31 g ai/ha,10
same,Plant response rating (scale of 0 to 100 where 0 is no effect and 100 is complete control),wheat (winter wheat); 62 g ai/ha,10
same,Plant response rating (scale of 0 to 100 where 0 is no effect and 100 is complete control),wheat (winter wheat); 125 g ai/ha,15
same,Plant response rating (scale of 0 to 100 where 0 is no effect and 100 is complete control),wheat (winter wheat); 250 g ai/ha,20
same,Plant response rating (scale of 0 to 100 where 0 is no effect and 100 is complete control),"oilseed rape; Oilsee Rape, 250 g ai/ha",90
same,Plant response rating (scale of 0 to 100 where 0 is no effect and 100 is complete control),"oilseed rape; Oilseed Rape, 31 g ai/ha",50
same,Plant response rating (scale of 0 to 100 where 0 is no effect and 100 is complete control),"oilseed rape; Oilseed Rape, 62 g ai/ha",70
same,Plant response rating (scale of 0 to 100 where 0 is no effect and 100 is complete control),"oilseed rape; Oilseed Rape, 125 g ai/ha",80
same,Plant response rating (scale of 0 to 100 where 0 is no effect and 100 is complete control),"ryegrass, Italian; 31 g ai/ha",5
same,Plant response rating (scale of 0 to 100 where 0 is no effect and 100 is complete control),"ryegrass, Italian; 62 g ai/ha",5
same,Plant response rating (scale of 0 to 100 where 0 is no effect and 100 is complete control),"ryegrass, Italian; 125 g ai/ha",5
same,Plant response rating (scale of 0 to 100 where 0 is no effect and 100 is complete control),"ryegrass, Italian; 250 g ai/ha",5
same,Plant response rating (scale of 0 to 100 where 0 is no effect and 100 is complete control),johnsongrass; 31 g ai/ha,10
same,Plant response rating (scale of 0 to 100 where 0 is no effect and 100 is complete control),johnsongrass; 62 g ai/ha,10
same,Plant response rating (scale of 0 to 100 where 0 is no effect and 100 is complete control),johnsongrass; 125 g ai/ha,15
same,Plant response rating (scale of 0 to 100 where 0 is no effect and 100 is complete control),johnsongrass; 250 g ai/ha,20
same,Plant response rating (scale of 0 to 100 where 0 is no effect and 100 is complete control),"foxtail, giant [6]; 31 g ai/ha",35
same,Plant response rating (scale of 0 to 100 where 0 is no effect and 100 is complete control),"foxtail, giant [6]; 62 g ai/ha",35
same,Plant response rating (scale of 0 to 100 where 0 is no effect and 100 is complete control),"foxtail, giant [6]; 125 g ai/ha",55
same,Plant response rating (scale of 0 to 100 where 0 is no effect and 100 is complete control),"foxtail, giant [6]; 250 g ai/ha",55
same,plant injury at 125 g/ha,rice,25%
same,pest or weed control at 125 g/ha,pigweed [7]; 125 g ai/ha,100%
same,pest or weed control at 500 g/ha,pigweed [7]; 500 g ai/ha,100%
same,Plant response rating (scale of 0 to 100 where 0 is no effect and 100 is complete control),ragweed; 31 g ai/ha,60
same,Plant response rating (scale of 0 to 100 where 0 is no effect and 100 is complete control),ragweed; 62 g ai/ha,70
same,Plant response rating (scale of 0 to 100 where 0 is no effect and 100 is complete control),ragweed; 125 g ai/ha,75
same,Plant response rating (scale of 0 to 100 where 0 is no effect and 100 is complete control),ragweed; 250 g ai/ha,80
same,Plant response rating (scale of 0 to 100 where 0 is no effect and 100 is complete control),chickweed; 31 g ai/ha,60
same,Plant response rating (scale of 0 to 100 where 0 is no effect and 100 is complete control),chickweed; 62 g ai/ha,85
same,Plant response rating (scale of 0 to 100 where 0 is no effect and 100 is complete control),chickweed; 125 g ai/ha,85
same,Plant response rating (scale of 0 to 100 where 0 is no effect and 100 is complete control),chickweed; 250 g ai/ha,95
same,Plant response rating (scale of 0 to 100 where 0 is no effect and 100 is complete control),corn [8]; 31 g ai/ha,15
same,Plant response rating (scale of 0 to 100 where 0 is no effect and 100 is complete control),corn [8]; 62 g ai/ha,15
same,Plant response rating (scale of 0 to 100 where 0 is no effect and 100 is complete control),corn [8]; 125 g ai/ha,20
same,Plant response rating (scale of 0 to 100 where 0 is no effect and 100 is complete control),corn [8]; 250 g ai/ha,20
